Here are results for ten compounds from ChEMBL document CHEMBL5465560, “Selectivity Literature for EUbOPEN Chemogenomic Library” (2024).

Each structure is given as a SMILES string. Some results are limits rather than exact numbers.

The target in test [1] is Serine/threonine-protein kinase 10 (Homo sapiens) (UniProt O94804). The experiment in a line: Selectivity interaction (ActivX KiNativ screen (ex vivo kinase selectivity in human PBMCs)) EUB0001619a STK10. Format: cell-based. Particulars: PBMC, at 1 µM.
For test [2], the target named is Platelet-derived growth factor receptor beta (Homo sapiens, UniProt P09619). The experiment in a line: Selectivity interaction (KinomeScan (DiscoverX)) EUB0000699a PDGFRB. As to conditions: at 10 µM.
The target in test [3] is Cyclin-dependent kinase 14 (Homo sapiens) (UniProt O94921). As to conditions: at 10 µM.
Test [4] addresses Mitogen-activated protein kinase kinase kinase kinase 1 (Homo sapiens) (UniProt Q92918). As to conditions: at 10 µM.
Test [5] addresses Glycogen synthase kinase-3 beta (Homo sapiens, UniProt P49841). Particulars: at 10 µM.
Test [6] deals with Hepatocyte growth factor receptor (Homo sapiens, UniProt P08581). Kind of test: Selectivity interaction (Kinase counterscreening (biochemical assay)) EUB0000604a MET. In general terms: The purpose of a counterscreen is to sort out artefacts and off-target activity.
The target of test [7] is Ribosomal protein S6 kinase alpha-1 (Homo sapiens, UniProt Q15418). Kind of test: Selectivity interaction (ActivX KiNativ screen (kinase selectivity in THP-1 cell lysates)) EUB0000639a RPS6KA1. It counts as subcellular. Particulars: lysate, at 0.2 µM.
For test [8], the target named is Fibroblast growth factor receptor 1 (Homo sapiens, UniProt P11362). Kind of test: Selectivity interaction (Kinase panel (DSF assay)) EUB0001559a FGFR1. Background: Differential scanning fluorimetry follows unfolding on heating by fluorescence.
In test [9] the target is Leucine-rich repeat serine/threonine-protein kinase 2 (Homo sapiens, UniProt Q5S007). The experiment in a line: (§1) Selectivity interaction (ProQinase) EUB0000171b LRRK2.
Test [10] relates to Leucine-rich repeat serine/threonine-protein kinase 2 (Homo sapiens), Q5S007 [R1441C]. The test is described as §1.
For test [11], the system named is Leucine-rich repeat serine/threonine-protein kinase 2 (Homo sapiens), Q5S007 [G2019S]. The test is described as §1.
Test [12] deals with Leucine-rich repeat serine/threonine-protein kinase 2 (Homo sapiens), Q5S007 [I2020T]. The test is described as §1.
Test [13] deals with T1, Mitogen-activated protein kinase kinase kinase 13 (Homo sapiens) (UniProt O43283).
T1 sequence (whole entry): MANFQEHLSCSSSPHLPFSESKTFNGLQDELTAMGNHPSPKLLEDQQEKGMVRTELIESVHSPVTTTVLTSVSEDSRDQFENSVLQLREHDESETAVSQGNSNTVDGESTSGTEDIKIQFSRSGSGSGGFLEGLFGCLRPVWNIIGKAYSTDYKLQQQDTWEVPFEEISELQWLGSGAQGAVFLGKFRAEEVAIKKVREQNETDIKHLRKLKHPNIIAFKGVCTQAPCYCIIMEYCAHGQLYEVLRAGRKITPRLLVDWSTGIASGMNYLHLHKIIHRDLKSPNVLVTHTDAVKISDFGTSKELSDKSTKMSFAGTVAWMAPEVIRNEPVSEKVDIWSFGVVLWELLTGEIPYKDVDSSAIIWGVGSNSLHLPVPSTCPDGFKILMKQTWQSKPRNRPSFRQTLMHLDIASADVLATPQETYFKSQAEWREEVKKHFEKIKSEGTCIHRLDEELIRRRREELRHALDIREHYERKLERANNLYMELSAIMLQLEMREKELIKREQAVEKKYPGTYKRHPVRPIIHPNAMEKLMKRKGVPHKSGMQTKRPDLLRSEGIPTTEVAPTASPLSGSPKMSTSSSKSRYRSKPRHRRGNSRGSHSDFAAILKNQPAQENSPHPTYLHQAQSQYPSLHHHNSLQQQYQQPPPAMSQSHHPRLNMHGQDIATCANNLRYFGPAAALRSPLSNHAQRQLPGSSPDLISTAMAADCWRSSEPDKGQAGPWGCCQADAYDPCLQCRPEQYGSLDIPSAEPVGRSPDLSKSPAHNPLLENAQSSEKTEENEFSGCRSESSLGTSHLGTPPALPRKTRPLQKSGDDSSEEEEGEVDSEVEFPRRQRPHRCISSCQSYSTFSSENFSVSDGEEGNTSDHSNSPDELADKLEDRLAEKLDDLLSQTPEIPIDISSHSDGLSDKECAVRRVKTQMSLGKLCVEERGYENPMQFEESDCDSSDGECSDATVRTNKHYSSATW
Kind of test: Selectivity interaction (Ambit KINOMEscan and KiNATiv profiling in Jurkat cells) EUB0000090b MAP3K13. It counts as cell-based. Particulars: at 1 µM.

Test [14] addresses T2, Ephrin type-A receptor 6 (Homo sapiens) (UniProt Q9UF33).
T2 sequence (whole entry): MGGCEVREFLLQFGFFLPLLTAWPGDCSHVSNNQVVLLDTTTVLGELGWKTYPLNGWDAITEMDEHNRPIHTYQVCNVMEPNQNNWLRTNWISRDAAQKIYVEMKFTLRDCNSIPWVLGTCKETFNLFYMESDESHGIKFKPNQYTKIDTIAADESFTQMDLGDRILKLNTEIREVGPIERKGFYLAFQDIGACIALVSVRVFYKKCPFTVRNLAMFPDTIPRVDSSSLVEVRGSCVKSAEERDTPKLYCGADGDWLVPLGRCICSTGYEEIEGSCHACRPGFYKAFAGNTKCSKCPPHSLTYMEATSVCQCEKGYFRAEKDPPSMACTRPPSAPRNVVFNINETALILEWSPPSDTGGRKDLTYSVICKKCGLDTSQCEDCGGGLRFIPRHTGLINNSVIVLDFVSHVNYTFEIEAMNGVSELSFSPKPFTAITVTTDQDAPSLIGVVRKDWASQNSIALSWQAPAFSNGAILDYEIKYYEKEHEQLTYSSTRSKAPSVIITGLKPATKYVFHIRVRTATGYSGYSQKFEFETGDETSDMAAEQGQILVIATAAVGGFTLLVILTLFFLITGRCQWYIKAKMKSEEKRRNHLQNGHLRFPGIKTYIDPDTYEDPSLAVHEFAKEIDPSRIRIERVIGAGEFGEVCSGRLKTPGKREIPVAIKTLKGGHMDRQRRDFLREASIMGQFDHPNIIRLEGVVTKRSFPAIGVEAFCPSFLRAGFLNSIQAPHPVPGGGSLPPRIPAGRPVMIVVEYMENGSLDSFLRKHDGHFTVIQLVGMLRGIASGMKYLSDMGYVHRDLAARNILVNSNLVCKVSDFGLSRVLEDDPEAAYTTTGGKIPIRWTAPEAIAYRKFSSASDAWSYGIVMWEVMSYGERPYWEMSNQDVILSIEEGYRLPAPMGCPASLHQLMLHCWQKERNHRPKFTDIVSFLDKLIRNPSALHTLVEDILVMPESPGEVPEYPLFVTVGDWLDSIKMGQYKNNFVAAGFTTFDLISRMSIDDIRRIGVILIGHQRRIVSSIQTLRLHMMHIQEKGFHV
Kind of test: Selectivity interaction (KinomeScan (DiscoverX)) EUB0000655a EPHA6. Particulars: at 10 µM.

Test [15] deals with Dual specificity mitogen-activated protein kinase kinase 1 (Homo sapiens, UniProt Q02750). Kind of test: Selectivity interaction (KinomeScan (DiscoverX)) EUB0000618a MAP2K1. Particulars: at 10 µM.

Chain of Leucine-rich repeat serine/threonine-protein kinase 2 (Q5S007 whole entry): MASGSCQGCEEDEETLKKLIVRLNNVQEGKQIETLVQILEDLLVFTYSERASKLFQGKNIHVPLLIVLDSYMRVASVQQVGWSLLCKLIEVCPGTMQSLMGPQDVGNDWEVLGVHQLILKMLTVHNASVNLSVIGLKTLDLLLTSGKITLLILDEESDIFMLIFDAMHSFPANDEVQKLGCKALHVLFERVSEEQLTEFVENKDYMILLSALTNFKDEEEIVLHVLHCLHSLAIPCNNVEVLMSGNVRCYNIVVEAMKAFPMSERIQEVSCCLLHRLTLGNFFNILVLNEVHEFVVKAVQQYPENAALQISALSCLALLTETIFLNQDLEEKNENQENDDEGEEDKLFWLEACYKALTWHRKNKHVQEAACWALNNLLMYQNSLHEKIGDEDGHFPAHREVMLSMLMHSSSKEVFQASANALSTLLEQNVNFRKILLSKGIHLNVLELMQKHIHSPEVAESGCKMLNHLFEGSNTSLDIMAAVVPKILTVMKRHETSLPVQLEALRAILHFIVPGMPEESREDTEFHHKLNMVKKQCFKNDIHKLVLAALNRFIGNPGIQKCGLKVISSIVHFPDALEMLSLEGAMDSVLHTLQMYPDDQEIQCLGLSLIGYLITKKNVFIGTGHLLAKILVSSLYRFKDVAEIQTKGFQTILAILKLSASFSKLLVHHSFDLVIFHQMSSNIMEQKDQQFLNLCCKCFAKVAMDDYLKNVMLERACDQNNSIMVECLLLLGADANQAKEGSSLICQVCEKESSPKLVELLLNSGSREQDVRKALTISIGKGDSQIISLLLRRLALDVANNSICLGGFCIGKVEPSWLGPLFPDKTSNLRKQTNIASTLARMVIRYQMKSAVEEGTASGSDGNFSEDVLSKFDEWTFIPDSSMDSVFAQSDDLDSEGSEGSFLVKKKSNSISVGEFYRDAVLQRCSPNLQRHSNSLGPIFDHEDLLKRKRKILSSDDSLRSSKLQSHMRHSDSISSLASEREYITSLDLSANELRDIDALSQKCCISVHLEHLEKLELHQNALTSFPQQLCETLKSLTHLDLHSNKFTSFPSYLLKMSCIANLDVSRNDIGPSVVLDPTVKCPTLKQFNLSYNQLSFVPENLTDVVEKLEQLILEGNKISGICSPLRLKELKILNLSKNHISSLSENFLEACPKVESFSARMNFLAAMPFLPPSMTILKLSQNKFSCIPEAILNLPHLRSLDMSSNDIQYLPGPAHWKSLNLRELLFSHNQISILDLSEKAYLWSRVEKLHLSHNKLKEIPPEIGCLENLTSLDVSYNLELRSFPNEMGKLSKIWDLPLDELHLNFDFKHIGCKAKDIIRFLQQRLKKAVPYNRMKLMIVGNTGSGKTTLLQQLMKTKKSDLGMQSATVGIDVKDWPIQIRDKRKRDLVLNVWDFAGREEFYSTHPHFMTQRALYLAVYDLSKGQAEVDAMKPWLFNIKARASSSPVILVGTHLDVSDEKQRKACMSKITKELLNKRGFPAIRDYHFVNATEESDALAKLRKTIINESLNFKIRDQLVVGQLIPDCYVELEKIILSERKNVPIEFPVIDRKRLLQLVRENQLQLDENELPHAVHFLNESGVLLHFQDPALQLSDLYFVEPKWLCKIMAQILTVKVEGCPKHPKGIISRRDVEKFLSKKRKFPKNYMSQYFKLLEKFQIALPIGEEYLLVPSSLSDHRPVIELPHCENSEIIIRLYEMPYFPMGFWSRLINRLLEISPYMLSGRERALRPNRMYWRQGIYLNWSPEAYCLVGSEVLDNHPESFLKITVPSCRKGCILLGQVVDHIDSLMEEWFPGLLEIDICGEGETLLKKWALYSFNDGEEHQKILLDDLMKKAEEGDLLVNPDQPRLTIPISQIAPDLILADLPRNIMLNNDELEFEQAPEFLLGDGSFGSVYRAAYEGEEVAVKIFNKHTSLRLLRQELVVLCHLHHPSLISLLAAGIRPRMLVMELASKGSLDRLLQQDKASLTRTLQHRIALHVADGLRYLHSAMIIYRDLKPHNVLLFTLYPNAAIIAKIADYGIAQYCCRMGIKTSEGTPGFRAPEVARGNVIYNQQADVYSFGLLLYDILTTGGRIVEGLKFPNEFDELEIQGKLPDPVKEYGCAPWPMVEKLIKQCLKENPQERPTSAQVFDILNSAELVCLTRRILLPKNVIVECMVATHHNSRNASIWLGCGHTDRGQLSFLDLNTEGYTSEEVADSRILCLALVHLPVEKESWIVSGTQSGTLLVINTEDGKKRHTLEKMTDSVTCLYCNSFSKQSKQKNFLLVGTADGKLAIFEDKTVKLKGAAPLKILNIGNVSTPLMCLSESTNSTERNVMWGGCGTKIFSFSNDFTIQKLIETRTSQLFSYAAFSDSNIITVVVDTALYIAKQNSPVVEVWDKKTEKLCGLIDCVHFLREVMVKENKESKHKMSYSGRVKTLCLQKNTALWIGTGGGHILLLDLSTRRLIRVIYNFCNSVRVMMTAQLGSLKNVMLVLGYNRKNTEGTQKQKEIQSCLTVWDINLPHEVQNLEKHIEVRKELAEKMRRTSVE
Chain of Leucine-rich repeat serine/threonine-protein kinase 2 (Homo sapiens), Q5S007 [G2019S] (Q5S007 whole entry G2019S): as the sequence (Q5S007 whole entry) above, with G2019S counted along it

Consider `N#Cc1cccc(-c2c[nH]c3ncnc(N4CCOCC4)c23)c1`, for which the % of inhibition in test [1] stood at 77%.
In the case of `CCN(CC)CCCCNc1ncc2cc(-c3cc(OC)cc(OC)c3)c(NC(=O)NC(C)(C)C)nc2n1`, the % of control in test [2] is 38%; in test [3], 100%.
For the compound `Cc1cc([C@@H](C)Nc2ccccc2C(=O)O)c2nc(N3CCOCC3)cc(=O)n2c1` [AZD-6482], the % of control in test [4] and in [5] was 100% in each case.
Usually Ki stands for the dissociation constant of the complex between target and ligand, obtained from inhibition or displacement. A high value points to a looser hold on the target. In the case of `Cc1cnc(Nc2ccc(F)cc2Cl)nc1-c1c[nH]c(C(=O)N[C@H](CO)c2cccc(Cl)c2)c1`, the Ki in test [6] is over 4 µM.
As for `CC[C@@H]1[C@H](F)C(=O)N[C@@H]1COc1nccc2cc(C(N)=O)c(OC)cc12` [ZIMLOVISERTIB], in test [7], the % of inhibition was -3.6%.
On to `CN(C(=O)c1cnn2cccnc12)c1cc2c(cc1N1CCOCC1)C(=O)N(C[C@@H](F)C(C)(C)O)C2`, for which the dTM in [8] stood at 1 K.
Turning to `C=CC(=O)Nc1cccc(C(=O)Nc2ccc(Nc3cc(-c4[nH]c(SC)nc4C)ccn3)cc2)c1`, the % of control in test [9] (at 1 µM) was found to be 77%; in test [9] (at 5 µM) it was 47%; in test [10] (at 1 µM), 80%; in test [10] (at 5 µM), 51%; in [11] (at 1 µM), 72%; in test [11] (at 5 µM), 52%. In addition, the % of control in [12] (at 1 µM) was determined as 71%; in test [12] (at 5 µM), 49%.
Consider `CN(C)C/C=C/C(=O)Nc1ccc(C(=O)N2CCCC(Nc3ncc(Cl)c(-c4c[nH]c5ccccc45)n3)C2)cc1` (centres undefined), for which, in test [13], the % of control was determined as 95%.
On to `CN(C)CCOc1ccc(-c2nc(-c3ccncc3)c(-c3ccc4c(c3)CC/C4=N\O)[nH]2)cc1`, for which the % of control in test [14] came to 88%.
In turn, `O[C@H]1CC[C@H](Nc2ncc3nc(Nc4c(F)cc(F)cc4F)n([C@H]4CCOC4)c3n2)CC1` returned a % of control in test [15] of 100%.
